Biological target: T1, visual cycle isomerase (Mus musculus, UniProt Q91ZQ5)
T1 construct: The recovery of 11-cis-retinal after bleaching can be used to estimate the activity of isomerase in vivo; from tissue; host or cells: eye (RPE) of living CD-1 albino male mice
T1 sequence (Q91ZQ5 1-533): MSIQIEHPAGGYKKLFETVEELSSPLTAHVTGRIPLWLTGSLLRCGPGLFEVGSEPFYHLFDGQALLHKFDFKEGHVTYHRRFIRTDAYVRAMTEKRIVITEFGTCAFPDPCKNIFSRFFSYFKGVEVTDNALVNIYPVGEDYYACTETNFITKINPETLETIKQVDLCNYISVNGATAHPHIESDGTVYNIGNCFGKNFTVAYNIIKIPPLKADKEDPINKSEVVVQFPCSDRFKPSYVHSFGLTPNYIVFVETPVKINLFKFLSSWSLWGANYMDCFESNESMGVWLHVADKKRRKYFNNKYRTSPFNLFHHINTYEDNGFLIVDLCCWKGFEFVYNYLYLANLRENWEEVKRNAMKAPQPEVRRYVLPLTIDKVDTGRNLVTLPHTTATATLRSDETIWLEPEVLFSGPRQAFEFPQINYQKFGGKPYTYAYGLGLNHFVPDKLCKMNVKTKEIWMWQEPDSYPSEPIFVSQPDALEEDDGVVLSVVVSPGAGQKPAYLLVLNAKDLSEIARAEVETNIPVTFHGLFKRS
Test: in vivo murine isomerase assay: recovery of 11-cis-retinal (oxime) after photobleaching
Procedure: FIG. 1 illustrates isomerase inhibitory activity of the compound of Example 3 (Compound 3). The animals were orally gavaged with 1 mg/kg compound, then “photo-bleached” (5000 Lux white light for 10 minutes) at 4, 24 and 48 hours after dosing, and returned to darkness to allow recovery of the 11-cis-retinal content of the eyes. Mice were sacrificed 2 hours after bleaching, eyes were enucleated, and retinoid content was analyzed by HPLC.
FIG. 2 illustrates concentration-dependent inhibition of isomerase activity by the compound of Example 19 (Compound 19). […] Five animals were included in each treatment group. The error bars correspond to standard error.
A method for determining the effect of a compound on isomerase activity may be performed in vitro as described herein and in the art (Stecher et al., J Biol Chem 274:8577-85 (1999); see also Golczak et al., Proc. Natl. Acad. Sci. USA 102:8162-67 (2005)). Retinal pigment epithelium (RPE) microsome membranes isolated from an animal (such as bovine, porcine, human, for example) may serve as the source of the isomerase. The capability of the amine derivative compounds to inhibit isomerase may also be determined by an in vivo murine isomerase assay. Brief exposure of the eye to intense light (“photobleaching” of the visual pigment or simply “bleaching”) is known to photo-isomerize almost all 11-cis-retinal in the retina. […]

inhibition of 11-cis retinal (oxime) recovery (FIG. 2A/2B, dose response): dose related | ED50 (mouse, read-out: ED50 (dose of compound that gives 50% inhibition of 11-cis retinal (oxime) recovery), FIG. 2, five animals per treatment group, estimated from dose response): ~0.651 mg/kg
SMILES: CCCC(O)(CCC)CCc1cccc(C(O)CCN)c1 (centres unmarked) [Example 19, 4-(3-(3-amino-1-hydroxypropyl)phenethyl)heptan-4-ol]

From patent US8450527B2, “Amine derivative compounds for treating ophthalmic diseases and disorders” (Acucela Inc., priority 2007, dated 2013)
